Target: TSPO (Rattus norvegicus (Rat), UniProt P16257)
Test: In vitro binding affinity, 3H-PK11195 displacement in kidney mitochondria
Details: 0.6 nM 3H-PK11195, mitochondria from kidneys of male Wistar rats, 90 min at 4° C.
Procedure: 3H-PK11195 (specific activity 322 GBq/mmol) and 3H-Ro 15-1788 (specific activity 311 GBq/mmol) were purchased from Dupont-New England Nuclear. For binding studies, mitochondria were prepared as described in Trapani G., et al. J Med Chem. 1997; 40:3109-3118, with minor modifications as described here, from the kidneys of male Wistar rats killed by cervical dislocation. The kidneys were homogenized in 20 volumes of ice-cold 50 mM Tris-HCl (pH 7.4), 0.32 M sucrose, and 1 mM ethylenediaminetetraacetic acid (buffer A) containing protease inhibitors (benzamidine at […], bacitracin at […], and soybean trypsin inhibitor at […]) with a Teflon (DuPont) pestle in a glass homogenizer and centrifuged at 600 g for 10 min at 4° C. The resulting supernatant was centrifuged at 10,000 g for 10 min at 4° C. The pellet was suspended in 20 volumes of ice cold buffer A and centrifuged at 10,000 g for 10 min at 4° C. The crude mitochondrial pellet was frozen at −20° C. until the time of the assay or incubated with 0.6 nM 3H-PK11195 in 50 mM Tris-HCl (pH 7.4) (buffer B) with a range of concentrations of the tested compounds (0.1 nM-10 mM) in a total volume of 0.5 mL for 90 min at 4° C. The incubation was terminated by dilution to 5 mL with icecold buffer B; this step was followed immediately by rapid filtration through glass fiber Whatman GF/C filters. The filters were washed (2.5 mL) with buffer B, and the amount of radioactivity retained on the filters was determined with a Packard 1600 TR liquid scintillation counter at 66% efficiency. Nonspecific binding was estimated for each sample in the presence of unlabeled 1 mM PK11195. The 50% inhibitory concentrations were determined, and the dissociation constant (Ki) values were derived according to a previously derived equation (Cheng Y., et al. Biochem Pharmacol. 1973; 22:3099-3108). The protein concentration was estimated by the method of Lowry et al. (J Biol Chem. 1951; 193:265-275) with bovine serum albumin (Sigma-Aldrich) as the standard.

TSPO, sequence (P16257 whole entry, looked up): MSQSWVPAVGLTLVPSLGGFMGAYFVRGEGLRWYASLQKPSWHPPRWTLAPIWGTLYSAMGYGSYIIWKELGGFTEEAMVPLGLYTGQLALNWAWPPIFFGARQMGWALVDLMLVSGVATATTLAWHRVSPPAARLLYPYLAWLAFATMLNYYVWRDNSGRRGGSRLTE

Row | Structure (SMILES) | Ki [nM]
1 | CCN(CC)C(=O)Cc1c(-c2ccc(C)cc2)nc2c(C)cc(C)nn12 | 0.46
2 | CCN(CC)C(=O)Cc1c(-c2ccc(Cl)cc2)nc2c(C)cc(C)nn12 | 0.45
3 | CCN(CC)C(=O)Cc1c(-c2ccc(Br)cc2)nc2c(C)cc(C)nn12 | 0.97
4 | CCN(CC)C(=O)Cc1c(-c2ccc(F)cc2)nc2c(C)cc(C)nn12 | 2.4
5 | CCN(CC)C(=O)C(Oc1cccnc1-n1cccc1)c1ccc(OC)cc1 (centres unmarked) | 4
6 | CCN(CC)C(=O)C(Oc1ccccc1-n1cccc1)c1ccc(OC)cc1 (centres unmarked) | 5
7 | CCN(CC)C(=O)C(Oc1ccc(Cl)cc1-n1cccc1)c1ccc(OC)cc1 (centres unmarked) | 5.7

Target: TSPO in microglia (Rattus norvegicus (Rat), UniProt P16257)
Test: not given
Details: quinolinic acid-injected rat striatum; cited from earlier work

TSPO in microglia, sequence (P16257 whole entry): as the sequence (P16257 whole entry, looked up) above

Row | Structure (SMILES) | effect on microglial activation and neuronal death
8 | CCC(C)N(C)C(=O)c1cc2ccccc2c(-c2ccccc2Cl)n1 (centres unmarked) [PK 11195] | reduces microglial activation and neuronal death

Source: patent publication US8492379B2, “Translocator protein ligands” (The University of Sydney, priority 2007, dated 2013)
